# Tests used:
# [1] = pH dependency of the carboxyl oxygen exchange reaction (18O incorporation into Ac-Lys-OH); type: biochemical; conditions: 10 mM Ac-Lys-OH, 1 μM enzyme, 25° C., 95% H2^18O, pH 4.0-9.0 examined
# Experimental: The initial rate of carboxyl oxygen exchange reaction catalyzed by Lys-C and trypsin was determined by monitoring the rate of ^18O atom incorporation into the carboxyl terminus of Ac-Lys-OH. For the pH studies, a 10 mM solution of Ac-Lys-OH in aqueous buffers at different pHs was incubated with 1 μM Lys-C or trypsin at 25° C. in 95% H2^18O buffered at various pHs. The buffer solutions used were 50 mM citrate at pH 4.0, 5.0 and 6.0 (pH adjusted by addition of NaOH), 50 mM phosphate at pH 7.0 and 8.0 (pH adjusted by addition of NaOH) and 50 mM Tris at pH 9.0 (pH adjusted by addition of HCl). The duration of the reaction was 5 minutes for Lys-C and 20 minutes for trypsin. […] The single ^18O atom incorporated reaction product, Ac-Lys-^18OH, in the reconstituted reaction solution was then quantified by stable isotope dilution tandem mass spectrometry, as described below. […]
# (§1) An Agilent 1100 HPLC system (Palo Alto, Calif.) coupled to an API 3000 triple quadrupole mass spectrometer equipped with a TurbolonSpray™ ion source (Applied Biosystems-MDS-Sciex, Foster City, Calif.) was used to quantify Ac-Lys-^18OH. […]
# Amounts of Ac-Lys-^18OH in the reaction mixture were determined from the chromatographic peak area ratios of the analyte over the internal standard, assuming identical ionization efficiencies and identical yields of fragment ions for Ac-Lys-^18OH and [^13C2]Ac-Lys-OH. […]
# [2] = amidase activity (hydrolysis of Ac-Lys-NH2 in H2^18O); type: biochemical; conditions: 10 mM Ac-Lys-NH2, 25° C., 95% H2^18O, within the pH range examined
# Experimental: The amidase activity of Lys-C and trypsin was measured by monitoring the initial rate of hydrolysis of Ac-Lys-NH2 in H2^18O. Ac-Lys-NH2 (10 mM) was incubated with 0.2 uM Lys-C or 1 uM trypsin at 25° C. in 95% H2^18O at various pHs. The buffer solutions used were the same as described above for the carboxyl oxygen exchange reactions. The duration of the reaction was 5 min for Lys-C and 20 min for trypsin. The single ^18O atom incorporated reaction product, Ac-Lys-^18OH, was quantified after addition of a [^13C2]Ac-Lys-OH internal standard (0.75 μg) by stable isotope dilution tandem mass spectrometry, as described below. All reactions were carried out in triplicate.
# as §1
# The ion spray voltage and the ion source probe temperature were set at 5 kV and 400° C., respectively. […] The precursor and fragment ions monitored were m/z 191 (Ac-Lys-^18OH+H) and 149 (H-Lys-^18OH+H) for Ac-Lys-^18OH and m/z 191 ([^13C2]Ac-Lys-OH+H) and 147 (H-Lys-^16OH+H) for [^13C2]Ac-Lys-OH, respectively. […]
# [3] = steady-state kinetic parameters for the carboxyl oxygen exchange reaction; type: biochemical
# Experimental: The steady-state kinetic parameters for the carboxyl oxygen exchange reaction by Lys-C and trypsin were obtained at two different pHs (pH 9.0 and 5.0 for Lys-C and pH 8.0 and 6.0 for trypsin). Ac-Lys-OH (0.0625-10 mM) was incubated with 1 uM Lys-C or trypsin at 30° C. in 95% H2^1 80 buffered at various pHs (described above). The total volume of the reaction was 20 μL. The duration of the reaction was 10 min for Lys-C and 20 min for trypsin. The single ^18O atom incorporated reaction product, Ac-Lys-180H, was quantified after addition of a [^13C2]Ac-Lys-OH internal standard (0.75 μg) by stable isotope dilution tandem mass spectrometry, as described below. All reactions were carried out in triplicate.
# Km and Vmax values were calculated by fitting the Michaelis-Menten equation to the experimental data using SigmaPlot 9.01 (Systat Software, Richmond, Calif.). Kcat values were calculated by dividing the obtained Vmax values by the total enzyme amount added to the system.
# An Agilent 1100 HPLC system (Palo Alto, Calif.) coupled to an API 3000 triple quadrupole mass spectrometer equipped with a TurbolonSpray™ ion source (Applied Biosystems-MDS-Sciex, Foster City, Calif.) was used to quantify Ac-Lys-^18OH. The reconstituted reaction mixtures were injected (typically 5 μL) onto a reversed-phase C18 column (2.1×150 mm, 5 μm, 300 Å, Vydac) equilibrated with 5% acetonitrile/0.1% HFBA (v/v) in water and then eluted with the same solvent at a flow rate of 200 μL/min. A switching valve (Valco Instrument, Houston, Tex.) was placed between the HPLC system and the mass spectrometer to divert non-volatile salt fractions from the mass spectrometer at the beginning of the run. The switching valve was switched in-line with the mass spectrometer at 3 minutes after the injection. The elution time of Ac-Lys-^18OH was 3.8 minutes.
# The ion spray voltage and the ion source probe temperature were set at 5 kV and 400° C., respectively. Nitrogen was used both as a nebulizer and as an auxiliary gas, at flow rates of 3 and 8 L/min, respectively. A multiple reaction monitoring mode was used for monitoring Ac-Lys-^18OH and [^13C2]Ac-Lys-OH. The precursor and fragment ions monitored were m/z 191 (Ac-Lys-^18OH+H) and 149 (H-Lys-^18OH+H) for Ac-Lys-^18OH and m/z 191 ([^13C2]Ac-Lys-OH+H) and 147 (H-Lys-^16OH+H) for [^13C2]Ac-Lys-OH, respectively. […]
# Amounts of Ac-Lys-^18OH in the reaction mixture were determined from the chromatographic peak area ratios of the analyte over the internal standard, assuming identical ionization efficiencies and identical yields of fragment ions for Ac-Lys-^18OH and [^13C2]Ac-Lys-OH. The experimentally determined amounts of Ac-Lys-^18OH were corrected upward 5%, accounting for 60 incorporation resulting from the H2^18O solvent having a 5% H2^16O content. […]
# [4] = test system: apomyoglobin peptide that has a lysine residue at the C-terminus (Lys-peptide); test: 18O atom incorporation into apomyoglobin Lys-peptides by LC/MS; type: biochemical, Horse
# Experimental: (§2) We semi-quantitatively measured the rate of ^18O atom incorporation into Lys-C and tryptic peptides derived from apomyoglobin. This was done to test whether the increased rate of carboxyl oxygen exchange noted for the reaction of Ac-Lys-OH at acidic pH could be generalized to peptide substrates. Apomyoglobin (34 μg) was digested for 16 hours at 25° C. with either 1 μg of Lys-C or trypsin in 100 mM ammonium bicarbonate in H2^16O solvent. The digestion was stopped by adding formic acid to a final concentration of 1% and by boiling the reaction mixture for 2 minutes. The resulting Lys-C and tryptic peptides were lyophilized and used in the following experiments.
# (§3) The rate of the carboxyl oxygen exchange reaction into the Lys-C and tryptic peptides by Lys-C and trypsin, respectively, were semi-quantitatively measured by looking at the rate of ^18O atom incorporation into the carboxyl termini of the peptides by LC/MS (described below). The Lys-C and tryptic digests (both 1.5 μg) were incubated with Lys-C and trypsin (both 0.03 μg), respectively, in H2^18O at 30° C. buffered (see above) at pH 5.0 or 9.0 for Lys-C and pH 6.0 or 8.0 for trypsin for various reaction times (1 minute-60 minutes). The total reaction volume was 50 μL. Aliquots (5 μL) of the reaction mixtures were taken after 1, 5, 10, and 60 minutes. The reactions were stopped by mixing with 40 μL of 10% formic acid and by heating at 95° C. for 2 minutes. After the heat treatment, the solvents were evaporated in the speed-vac concentrator and the samples were stored at −20° C. until use.
# The stored ^18O labeled peptide mixtures were reconstituted in 20 μL of aqueous 0.1% trifluoroacetic acid (TFA), desalted by a C18 ZipTip as per the manufacturer's instructions (Millipore, Bedford, Mass.), and subjected to LC/MS analysis using an UltiMate nano HPLC system (Dionex, San Francisco, Calif.) interfaced to a QStar quadrupole/time of flight mass spectrometer (Applied Biosystems-MDS Sciex, Foster City, Calif.), as described previously. Briefly, the peptide mixture (5 μl) was injected directly into a reverse-phase analytical column (0.075×60 mm, New Objective Inc., Woburn, Mass.) packed with Jupiter C18 media (Phenomenex, Torrance, Calif.), washed with 2% acetonitrile/0.1% formic acid (v/v) in water for 15 minutes at flow rate of 2 μL/min. The peptides were then eluted with a 40 minute linear gradient of 2% acetonitrile/0.1% formic acid (v/v) in water to 40% acetonitrile/0.1% formic acid (v/v) in water at a flow rate of 200 nL/min. The column effluent was directed on-line to a nano-electrospray ion source. The total ion current was obtained in the mass range of m/z 400-1600 in the positive ion mode. The electrospray and orifice voltages were 2050V and 65V, respectively.
# [5] = test system: peptide that has an arginine residue at the C-terminus (Arg-peptide); test: 18O atom incorporation into apomyoglobin Arg-peptides by LC/MS; type: biochemical, Horse; conditions: for time to complete incorporation of two ^18O atoms: H2^18O
# Experimental: as §2, §3
# The stored ^18O labeled peptide mixtures were reconstituted in 20 μL of aqueous 0.1% trifluoroacetic acid (TFA), desalted by a C18 ZipTip as per the manufacturer's instructions (Millipore, Bedford, Mass.), and subjected to LC/MS analysis using an UltiMate nano HPLC system (Dionex, San Francisco, Calif.) interfaced to a QStar quadrupole/time of flight mass spectrometer (Applied Biosystems-MDS Sciex, Foster City, Calif.), as described previously. […]
substance,measurement,setting,value
trypsin,optimum pH of the carboxyl oxygen exchange reaction,[1],6.0 pH
same,most favorable pH for the amidase activity,[2],9 pH
same,"kcat/Km of carboxyl oxygen exchange, fold lower than reported kcat/Km for amide hydrolysis",[3]; pH 6.0 versus N-benzoyl-L-lysine amide hydrolysis at pH 8.0,5.1 fold
same,"Km, fold smaller at acidic than at alkaline pH",[3]; pH 6.0 versus pH 8.0,about 3 fold
same,"kcat, fold higher at acidic than at alkaline pH",[3]; pH 6.0 versus pH 8.0,about 5 fold
same,rate of the carboxyl oxygen exchange,[3]; pH 9.0,too low
same,time to complete incorporation of two ^18O atoms,"[4]; pH 6.0, 30° C., H2^18O",≤ 10 min
same,dominant result after 1 minute of incubation,[4]; pH 6.0 and 8.0,incorporation of only one ^18O atom
same,dominant result of ^18O incorporation,"[4]; pH 8.0, 30° C., H2^18O",incorporation of only one ^18O atom
same,time to complete incorporation of two ^18O atoms,"[4]; pH 8.0, 30° C., H2^18O",> 60 min
same,dominant peak after 1 minute of incubation,[5]; both pH 6.0 and 8.0,two ^18O atoms
same,time to complete incorporation of two ^18O atoms,"[5]; pH 6.0, 30° C.",≤ 10 min
same,time to complete incorporation of two ^18O atoms,"[5]; pH 8.0, 30° C.",60 min

# Reference: patent US8580534B2, “Method for incorporation of two oxygen atoms into digested peptides using peptidases” (The University of North Dakota, priority 2006, dated 2013)
